Where a name gives a salt, the structure may show the parent alone. Read-outs that look alike come from different tables or passages of the source.
System: NQO1 specific enzyme activity in BEAS-2B cells
Assay: BEAS-2B NQO1 MTT assay
Type: cell-based
Details: Homo sapiens, BEAS-2B
Source text: NAD(P)H:quinone oxidoreductase 1 (NQO1), also called DT diaphorase, is a homodimeric FAD-containing enzyme that catalyzes obligatory NAD(P)H-dependent two-electron reductions of quinones and protects cells against the toxic and neoplastic effects of free radicals and reactive oxygen species arising from one-electron reductions. The transcription of NQO1 is finely regulated by NRF2, and thus NQO1 activity is a good marker for NRF2 activation. On day one, frozen BEAS-2B cells (ATCC) are thawed in a water bath, counted, and re-suspended at a concentration of 250,000 cells/mL. Fifty microliters of cells are plated in 384 well black clear-bottomed plates. Plates are incubated at 37° C., 5% CO2 overnight. On day two, plates are centrifuged and 50 nL of compound or controls are added to the cells. Plates are then incubated at 37° C., 5% CO2 for 48 hours. On day four, medium is aspirated from the plate and crude cell lysates are made by adding 13 uL of 1× Cell Signaling Technologies lysis buffer with 1 Complete, Mini, EDTA-free Protease Inhibitor Tablet (Roche) for each 10 mL of lysis buffer. After lysis plates are incubated for 20 minutes at room temperature. Two microliters of lysate are removed for use in Cell Titer Glo assay (Promega) and MTT cocktail is prepared (Prochaska et. al. 1998) for measurement of NQO1 activity. Fifty microliters of MTT cocktail is added to each well, plate is centrifuged, and analyzed on an Envision plate reader (Perkin Elmer) using Absorbance 570 nm label for 30 minutes. Product formation is measured kinetically and the pEC50 of NQO1 specific activity induction is calculated by plotting the change in absorbance (Delta OD/min) versus the log of compound concentration followed by 3-parameter fitting.
EC50s<1 nM (+++++), EC50s 10 nM-1 nM (++++), EC50s 10-100 nM (+++), EC50s 100 nM-1 uM (++), EC50s 1 uM-10 uM (+), EC50s>10 uM (−), or were not determined (ND).

[1] = 48 h, NQO1 specific enzyme activity induction in BEAS-2B cells, 48 hours, read-out: EC50

SMILES	EC50 [1]	EC50 (NQO1 specific enzyme activity in BEAS-2B cells, in some determinations, read-out: EC50 values in some determinations)
Cc1c(C(c2ccc3c(c2)C(N2Cc4ccccc4OC(C)(C)C2)CC3)C(C)(C)C(=O)O)ccc2c1nnn2C (stereo not drawn) [Example 27, 3-(1,4-Dimethyl-1H-benzo[d][1,2,3]triazol-5-yl)-3-(3-(2,2-dimethyl-2,3-dihydrobenzo[f][1,4]oxazepin-4(5H)-yl)-2,3-dihydro-1H-inden-5-yl)-2,2-dimethylpropanoic Acid, 2 Formic Acid Salt]	< 0.001 µM	< 0.00017 µM
Cc1c(C(CC(=O)O)c2ccc3c(c2)C(N2Cc4cc(C#N)ccc4OC(C)(C)C2)CC3)ccc2c1nnn2C (stereo not drawn) [Example 28, 3-(3-(7-Cyano-2,2-dimethyl-2,3-dihydrobenzo[f][1,4]oxazepin-4(5H)-yl)-2,3-dihydro-1H-inden-5-yl)-3-(1,4-dimethyl-1H-benzo[d][1,2,3]triazol-5-yl)propanoic Acid, Formic Acid Salt]	< 0.001 µM	
COc1cc(C(CC(=O)O)c2ccc3c(c2)C(N2Cc4ccccc4OC(C)(C)C2)CC3)c(C)c2nnn(C)c12 (stereo not drawn) [Example 29, 3-(3-(2,2-Dimethyl-2,3-dihydrobenzo[f][1,4]oxazepin-4(5H)-yl)-2,3-dihydro-1H-inden-5-yl)-3-(7-methoxy-1,4-dimethyl-1H-benzo[d][1,2,3]triazol-5-yl)propanoic Acid, Formic Acid Salt]	< 0.001 µM	
CC[C@@H]1CN(C2CCc3ccc(C(c4ccc5c(nnn5C)c4C)C(C)(C)C(=O)O)cc32)Cc2ccccc2O1 (stereo partly drawn) [Example 30, 3-(1,4-Dimethyl-1H-benzo[d][1,2,3]triazol-5-yl)-3-(3-((R)-2-ethyl-2,3-dihydrobenzo[f][1,4]oxazepin-4(5H)-yl)-2,3-dihydro-1H-inden-5-yl)-2,2-dimethylpropanoic Acid, Formic Acid Salt]	0.001 to 0.01 µM	
Cc1ccc2c(c1)CN(C1CCc3ccc(C(c4ccc5c(nnn5C)c4C)C(C)(C)C(=O)O)cc31)C[C@@H](C)O2 (stereo partly drawn) [Example 31, 3-(1,4-Dimethyl-1H-benzo[d][1,2,3]triazol-5-yl)-3-(3-((R)-2,7-dimethyl-2,3-dihydrobenzo[f][1,4]oxazepin-4(5H)-yl)-2,3-dihydro-1H-inden-5-yl)-2,2-dimethylpropanoic Acid, Formic Acid Salt]	0.001 to 0.01 µM	
Cc1c(C(c2ccc3c(c2)C(N2Cc4ccccc4O[C@H](C)C2)CC3)C(C)(C)C(=O)O)ccc2c1nnn2C (stereo partly drawn) [Example 32, 3-(1,4-Dimethyl-1H-benzo[d][1,2,3]triazol-5-yl)-2,2-dimethyl-3-(3-((R)-2-methyl-2,3-dihydrobenzo[f][1,4]oxazepin-4(5H)-yl)-2,3-dihydro-1H-inden-5-yl)propanoic Acid, Formic Acid Salt]	0.001 to 0.01 µM	
Cc1c(C(c2ccc3c(c2)C(N2Cc4cnccc4OC(C)(C)C2)CC3)C(C)(C)C(=O)O)ccc2c1nnn2C (stereo not drawn) [Example 33, 3-(1,4-Dimethyl-1H-benzo[d][1,2,3]triazol-5-yl)-3-(3-(2,2-dimethyl-2,3-dihydropyrido[3,4-f][1,4]oxazepin-4(5H)-yl)-2,3-dihydro-1H-inden-5-yl)-2,2-dimethylpropanoic Acid, Trifluoroacetic Acid Salt]	0.001 to 0.01 µM	
Cc1c(C(c2ccc3c(c2)C(N2Cc4cccnc4OC(C)(C)C2)CC3)C(C)(C)C(=O)O)ccc2c1nnn2C (stereo not drawn) [Example 34, 3-(1,4-Dimethyl-1H-benzo[d][1,2,3]triazol-5-yl)-3-(3-(2,2-dimethyl-2,3-dihydropyrido[3,2-f][1,4]oxazepin-4(5H)-yl)-2,3-dihydro-1H-inden-5-yl)-2,2-dimethylpropanoic acid, Formic Acid Salt]	0.001 to 0.01 µM	
Cc1c(C(CC(=O)O)c2ccc3c(c2)C(N2Cc4ccc(C#N)cc4OC(C)(C)C2)CC3)ccc2c1nnn2C (stereo not drawn) [Example 35, 3-(3-(8-Cyano-2,2-dimethyl-2,3-dihydrobenzo[f][1,4]oxazepin-4(5H)-yl)-2,3-dihydro-1H-inden-5-yl)-3-(1,4-dimethyl-1H-benzo[d][1,2,3]triazol-5-yl)propanoic Acid, Formic Acid Salt]	0.001 to 0.01 µM	
COc1cc(C(CC(=O)O)c2ccc3c(c2)C(N2Cc4cnccc4OC(C)(C)C2)CC3)c(C)c2nnn(C)c12 (stereo not drawn) [Example 36, 3-(3-(2,2-Dimethyl-2,3-dihydropyrido[3,4-f][1,4]oxazepin-4(5H)-yl)-2,3-dihydro-1H-inden-5-yl)-3-(7-methoxy-1,4-dimethyl-1H-benzo[d][1,2,3]triazol-5-yl)propanoic Acid, Formic Acid Salt]	0.001 to 0.01 µM	
CC[C@@H]1CN(C2CCc3ccc(C(c4ccc5c(nnn5C)c4C)C(C)(C)C(=O)O)cc32)Cc2cnccc2O1 (stereo partly drawn) [Example 37, 3-(1,4-Dimethyl-1H-benzo[d][1,2,3]triazol-5-yl)-3-(3-((R)-2-ethyl-2,3-dihydropyrido[3,4-f][1,4]oxazepin-4(5H)-yl)-2,3-dihydro-1H-inden-5-yl)-2,2-dimethylpropanoic Acid, Formic Acid Salt]	0.001 to 0.01 µM	
Cc1c(C(c2ccc3c(c2)C(N2CCOc4ccccc4C2)CC3)C(C)(C)C(=O)O)ccc2c1nnn2C (stereo not drawn) [Example 38, 3-(3-(2,3-Dihydrobenzo[f][1,4]oxazepin-4(5H)-yl)-2,3-dihydro-1H-inden-5-yl)-3-(1,4-dimethyl-1H-benzo[d][1,2,3]triazol-5-yl)-2,2-dimethylpropanoic Acid, Formic Acid Salt]	0.001 to 0.01 µM	
COc1cc(C(CC(=O)O)c2ccc3c(c2)C(N2Cc4cc(C)ccc4O[C@H](C)C2)CC3)c(C)c2nnn(C)c12 (stereo partly drawn) [Example 39, 3-(3-((R)-2,7-Dimethyl-2,3-dihydrobenzo[f][1,4]oxazepin-4(5H)-yl)-2,3-dihydro-1H-inden-5-yl)-3-(7-methoxy-1,4-dimethyl-1H-benzo[d][1,2,3]triazol-5-yl)propanoic Acid, Formic Acid Salt]	0.001 to 0.01 µM	
Cc1c(C(CC(=O)O)c2ccc3c(c2)C(N2Cc4ccccc4OC(C)(C)C2)CC3)ccc2c1nnn2C (stereo not drawn) [Example 40, 3-(1,4-Dimethyl-1H-benzo[d][1,2,3]triazol-5-yl)-3-(3-(2,2-dimethyl-2,3-dihydrobenzo[f][1,4]oxazepin-4(5H)-yl)-2,3-dihydro-1H-inden-5-yl)propanoic Acid, Formic Acid Salt]	0.001 to 0.01 µM	
Cc1c(C(c2ccc3c(c2)C(N2Cc4cccnc4O[C@H](C)C2)CC3)C(C)(C)C(=O)O)ccc2c1nnn2C (stereo partly drawn) [Example 42, 3-(1,4-Dimethyl-1H-benzo[d][1,2,3]triazol-5-yl)-2,2-dimethyl-3-(3-((R)-2-methyl-2,3-dihydropyrido[3,2-f][1,4]oxazepin-4(5H)-yl)-2,3-dihydro-1H-inden-5-yl)propanoic Acid, Formic Acid Salt]	0.001 to 0.01 µM	
COc1cc(C(CC(=O)O)c2ccc3c(c2)C(N2Cc4ccccc4OC(C)(C)C2)CC3)cc2nnn(C)c12 (stereo not drawn) [Example 43, 3-(3-(2,2-Dimethyl-2,3-dihydrobenzo[f][1,4]oxazepin-4(5H)-yl)-2,3-dihydro-1H-inden-5-yl)-3-(7-methoxy-1-methyl-1H-benzo[d][1,2,3]triazol-5-yl)propanoic Acid, Formate Salt]	0.001 to 0.01 µM	
COc1cc(C(CC(=O)O)c2ccc3c(c2)C(N2Cc4cccnc4OC(C)(C)C2)CC3)c(C)c2nnn(C)c12 (stereo not drawn) [Example 44, 3-(3-(2,2-Dimethyl-2,3-dihydropyrido[3,2-f][1,4]oxazepin-4(5H)-yl)-2,3-dihydro-1H-inden-5-yl)-3-(7-methoxy-1,4-dimethyl-1H-benzo[d][1,2,3]triazol-5-yl)propanoic Acid, Formic Acid Salt]	0.001 to 0.01 µM	
CC[C@@H]1CN(C2CCc3ccc(C(CC(=O)O)c4cc(OC)c5c(nnn5C)c4C)cc32)Cc2ccccc2O1 (stereo partly drawn) [Example 45, 3-(3-((R)-2-Ethyl-2,3-dihydrobenzo[f][1,4]oxazepin-4(5H)-yl)-2,3-dihydro-1H-inden-5-yl)-3-(7-methoxy-1,4-dimethyl-1H-benzo[d][1,2,3]triazol-5-yl)propanoic Acid, Formic Acid Salt]	0.01 to 0.1 µM	
COc1cc(C(CC(=O)O)c2ccc3c(c2)C(N2Cc4cnccc4OC(C)(C)C2)CC3)cc2nnn(C)c12 (stereo not drawn) [Example 46, 3-(3-(2,2-Dimethyl-2,3-dihydropyrido[3,4-f][1,4]oxazepin-4(5H)-yl)-2,3-dihydro-1H-inden-5-yl)-3-(7-methoxy-1-methyl-1H-benzo[d][1,2,3]triazol-5-yl)propanoic Acid, Formic Acid Salt]	0.01 to 0.1 µM	
Cc1ccc2c(c1)CN(C1CCc3ccc(C(CC(=O)O)c4ccc5c(nnn5C)c4C)cc31)C[C@@H](C)O2 (stereo partly drawn) [Example 47, 3-(1,4-Dimethyl-1H-benzo[d][1,2,3]triazol-5-yl)-3-(3-((R)-2,7-dimethyl-2,3-dihydrobenzo[f][1,4]oxazepin-4(5H)-yl)-2,3-dihydro-1H-inden-5-yl)propanoic Acid, Formic Acid Salt]	0.01 to 0.1 µM	

Reference: patent publication US10272095B2 (GlaxoSmithKline Intellectual Property Development Limited, priority 2015, dated 2019)
